Results from patent US20130216634A1, “Herbal Supplement Prepared From Pelargonium Citronellum” (priority 2011, published 2013).
Like-named read-outs stand apart in the source and are kept apart here.

Key:
[1] = tested on: 25 different bacterial species, 20 different Listeria monocytogenes cultivars, three different fungi; details: singly or in combination, in the percentages listed by the ISO; cited from earlier work
[2] = tested on: adult human; assay: LD50, adult human (equivalent / reported); details: 143 lb (65 kg) adult human
[3] = tested on: mouse; details: cited from earlier work

Compound: CC(C)=CCCC(C)CCO (stereo not drawn) [citronellol]
- Bioactivity (antibacterial, antifungal, anti-oxidant) [1]: very potent

Compound: CC(C)=CCC/C(C)=C/CO [geraniol]
- Bioactivity (antibacterial, antifungal, anti-oxidant) [1]: very potent

Compound: CCC(C)CC(C)N (stereo not drawn) [methylhexaneamine, Methylhexaneamine]
- LD50 equivalent for adult human ([2]; intraperitoneally injected): 978 milligrams
- LD50 equivalent for adult human ([2]; intravenously injected): 206 mg
- LD50 ([3]; intraperitoneal administration): 185 mg/kg
- LD50 ([3]; intravenous): 39 mg/kg
